Assay results reported in patent US7687435B2, “Benzoyl-substituted phenylalanineamides” (BASF Aktiengesellschaft, priority 2003, dated 2010).

Key:
pig weed = experiment: greenhouse post-emergence herbicidal test, pig weed; format: in vivo, Amaranthus retroflexus
Excerpt: (§1) The seeds of the test plants were sown separately for each species. For the post-emergence treatment, the test plants were first grown to a height of 3 to 15 cm, depending on the plant habit, and only then treated with the active ingredients which had been suspended or emulsified in water. For this purpose, the test plants were either sown directly and grown in the same containers, or they were first grown separately as seedlings and transplanted into the test containers a few days prior to treatment. The rate of application for the post-emergence treatment was 1.0, 0.5, 0.25, 0.125 or 0.0625 kg/ha of a.s. (active substance). Depending on the species, the plants were kept at 10-25° C. or 20-35° C. The test period extended over 2 to 4 weeks. During this time, the plants were tended, and their response to the individual treatments was evaluated. Evaluation was carried out using a scale from 0 to 100. 100 means no emergence of the plants, or complete destruction of at least the aerial parts, and 0 means no damage, or normal course of growth. The plants used in the greenhouse experiments belonged to the following species: [table]

lambsquarters = experiment: greenhouse post-emergence herbicidal test, lambsquarters; format: in vivo, Chenopodium album
Excerpt: as §1

green foxtail = experiment: greenhouse post-emergence herbicidal test, green foxtail; format: in vivo, Setaria viridis
Excerpt: as §1

black bindweed = experiment: greenhouse post-emergence herbicidal test, black bindweed; format: in vivo, Polygonum convolvulus
Excerpt: as §1

cleavers harrif = experiment: greenhouse post-emergence herbicidal test, cleavers harrif; format: in vivo, Galium aparine
Excerpt: as §1

velvet leaf = experiment: greenhouse post-emergence herbicidal test, velvet leaf; format: in vivo, Abutilon theophrasti; conditions: application rate 0.5 kg/ha
Excerpt: as §1

wild oat = experiment: greenhouse post-emergence herbicidal test, wild oat; format: in vivo, Avena fatua; conditions: application rate 0.5 kg/ha
Excerpt: as §1

## CNC(=O)C(NC(=O)c1ccccc1C(F)(F)F)C(O)c1ccccc1 (racemic) [Compound 3.2]
Pig weed; application rate 1.00 kg/ha
  post-emergence action against pig weed: very good
lambsquarters; application rate 1.00 kg/ha
  post-emergence action against lambsquarters: very good
Green foxtail; application rate 1.00 kg/ha
  post-emergence action against green foxtail: very good

## CNC(=O)C(NC(=O)c1ccc(F)cc1C(F)(F)F)C(O)c1ccccc1[N+](=O)[O-] (racemic) [Compound 3.67]
Pig weed; application rate 1.00 kg/ha
  post-emergence action against pig weed: very good
lambsquarters; application rate 1.00 kg/ha
  post-emergence action against lambsquarters: very good
Green foxtail; application rate 1.00 kg/ha
  post-emergence action against green foxtail: very good

## CNC(=O)C(NC(=O)c1ccc(F)cc1C(F)(F)F)C(OC(=O)N(C)C)c1cccc(N)c1 (racemic) [Compound 3.123]
Pig weed; application rate 1.00 kg/ha
  post-emergence action against pig weed: very good
lambsquarters; application rate 1.00 kg/ha
  post-emergence action against lambsquarters: very good
Black bindweed; application rate 1.00 kg/ha
  post-emergence action on black bindweed: very good

## CNC(=O)C(NC(=O)c1ccc(F)cc1C(F)(F)F)C(OC(=O)N(C)C)c1cccc(NS(C)(=O)=O)c1 (racemic) [Compound 3.128]
Pig weed; application rate 1.00 kg/ha
  post-emergence action against pig weed: very good
lambsquarters; application rate 1.00 kg/ha
  post-emergence action against lambsquarters: very good
Green foxtail; application rate 1.00 kg/ha
  post-emergence action against green foxtail: very good

## CNC(=O)C(NC(=O)c1ccc(F)cc1C(F)(F)F)C(O[Si](C)(C)C(C)(C)C)c1ccccc1 (racemic) [Compound 3.154]
Pig weed; application rate 1.00 kg/ha
  post-emergence action against pig weed: very good
lambsquarters; application rate 1.00 kg/ha
  post-emergence action against lambsquarters: very good
Green foxtail; application rate 1.00 kg/ha
  post-emergence action against green foxtail: very good
Cleavers harrif; application rate 1.0 kg/ha
  post-emergence control of cleavers harrif: very good
Black bindweed; application rate 1.00 kg/ha
  post-emergence action on black bindweed: very good

## CNC(=O)C(NC(=O)c1cccc([N+](=O)[O-])c1C)C(O)c1ccccc1 (racemic) [Compound 5.20]
Velvet leaf
  post-emergence action on velvet leaf: very good

## CNC(=O)C(NC(=O)c1ccccc1OC(F)(F)F)C(O)c1ccccc1 (racemic) [Compound 5.36]
Velvet leaf
  post-emergence action on velvet leaf: very good

## CNC(=O)C(NC(=O)c1ccccc1SC(F)F)C(O)c1ccccc1 (racemic) [Compound 5.37]
Velvet leaf
  post-emergence action on velvet leaf: controlled
Wild oat
  post-emergence control of wild oat: controlled

## CNC(=O)[C@@H](NC(=O)c1ccc(F)cc1C(F)(F)F)[C@H](O)c1cccc(F)c1C [Compound 3.10]
Pig weed; application rate 1.00 kg/ha
  post-emergence action against pig weed: very good
lambsquarters; application rate 1.00 kg/ha
  post-emergence action against lambsquarters: very good
Green foxtail; application rate 1.00 kg/ha
  post-emergence action against green foxtail: very good

## CNC(=O)[C@@H](NC(=O)c1ccc(F)cc1C(F)(F)F)[C@H](O)c1cccc(Cl)c1C [Compound 3.11]
Pig weed; application rate 1.00 kg/ha
  post-emergence action against pig weed: very good
lambsquarters; application rate 1.00 kg/ha
  post-emergence action against lambsquarters: very good
Green foxtail; application rate 1.00 kg/ha
  post-emergence action against green foxtail: very good

## CNC(=O)C(NC(=O)c1ccc(F)cc1C(F)(F)F)C(OC(=O)N(C)C)c1ccccc1C (stereo not shown) [Compound 3.28]
Pig weed; application rate 1.00 kg/ha
  post-emergence action against pig weed: very good
lambsquarters; application rate 1.00 kg/ha
  post-emergence action against lambsquarters: very good
Green foxtail; application rate 1.00 kg/ha
  post-emergence action against green foxtail: very good

## CNC(=O)C(NC(=O)c1ccc(F)cc1C(F)(F)F)C(c1ccccc1)N(C=O)Cc1ccccc1 (stereo not shown) [Compound 3.43, N-[2-(N-Benzyl-N-formylamino)-1-methylcarbamoyl-2-phenylethyl]-4-fluoro-2-trifluoromethylbenzamide]
other
  melting point: 212 °C

## CNC(=O)C(NC(=O)c1ccc(F)cc1C(F)(F)F)C(O)c1ccccc1CO (stereo not shown) [Compound 3.61]
Pig weed; application rate 0.5 kg/ha
  post-emergence action against pig weed: very good
lambsquarters; application rate 0.5 kg/ha
  post-emergence action against lambsquarters: very good
Cleavers harrif; application rate 0.5 kg/ha
  post-emergence control of cleavers harrif: very good
Black bindweed; application rate 0.5 kg/ha
  post-emergence action on black bindweed: very good

## CNC(=O)C(NC(=O)c1ccc(F)cc1C(F)(F)F)C(O)c1ccccc1COC(C)=O (stereo not shown) [Compound 3.62]
Pig weed; application rate 0.5 kg/ha
  post-emergence action against pig weed: very good
lambsquarters; application rate 0.5 kg/ha
  post-emergence action against lambsquarters: very good
Green foxtail; application rate 0.5 kg/ha
  post-emergence action against green foxtail: very good
Cleavers harrif; application rate 0.5 kg/ha
  post-emergence control of cleavers harrif: very good

## CNC(=O)C(NC(=O)c1ccc(F)cc1C(F)(F)F)C(O)c1ccccc1COS(C)(=O)=O (stereo not shown) [Compound 3.65]
Pig weed; application rate 0.5 kg/ha
  post-emergence action against pig weed: very good
lambsquarters; application rate 0.5 kg/ha
  post-emergence action against lambsquarters: very good
Black bindweed; application rate 0.5 kg/ha
  post-emergence action on black bindweed: very good

## CNC(=O)C(NC(=O)c1ccc(F)cc1C(F)(F)F)C(O)c1ccccc1OCc1ccccc1 (stereo not shown) [Compound 3.66]
Pig weed; application rate 1.00 kg/ha
  post-emergence action against pig weed: very good
lambsquarters; application rate 1.00 kg/ha
  post-emergence action against lambsquarters: very good
Green foxtail; application rate 1.00 kg/ha
  post-emergence action against green foxtail: very good

## CNC(=O)C(NC(=O)c1ccc(F)cc1C(F)(F)F)C(OC(=O)COCCOCCOC)c1ccccc1COC(=O)COCCOCCOC (stereo not shown) [Compound 3.96]
Pig weed; application rate 0.5 kg/ha
  post-emergence action against pig weed: very good
lambsquarters; application rate 0.5 kg/ha
  post-emergence action against lambsquarters: very good
Cleavers harrif; application rate 0.5 kg/ha
  post-emergence control of cleavers harrif: very good
Black bindweed; application rate 0.5 kg/ha
  post-emergence action on black bindweed: very good

## CNC(=O)C(NC(=O)c1ccc(F)cc1C(F)(F)F)C(OC(=O)N(C)C)c1ccccc1COC(=O)N(C)C (stereo not shown) [Compound 3.131]
Pig weed; application rate 0.5 kg/ha
  post-emergence action against pig weed: very good
lambsquarters; application rate 0.5 kg/ha
  post-emergence action against lambsquarters: very good
Cleavers harrif; application rate 0.5 kg/ha
  post-emergence control of cleavers harrif: very good
Black bindweed; application rate 0.5 kg/ha
  post-emergence action on black bindweed: very good

## CNC(=O)[C@@H](NC(=O)c1ccc(F)cc1C(F)(F)F)[C@H](OC(=O)NS(=O)(=O)C(F)(F)F)c1cccc(F)c1C [Compound 3.137]
Pig weed; application rate 1.00 kg/ha
  post-emergence action against pig weed: very good
lambsquarters; application rate 1.00 kg/ha
  post-emergence action against lambsquarters: very good
Black bindweed; application rate 1.00 kg/ha
  post-emergence action on black bindweed: very good

## CC[Si](CC)(CC)OCc1ccccc1C(O[Si](CC)(CC)CC)C(NC(=O)c1ccc(F)cc1C(F)(F)F)C(=O)NC (stereo not shown) [Compound 3.152]
Pig weed; application rate 1.00 kg/ha
  post-emergence action against pig weed: very good
lambsquarters; application rate 1.00 kg/ha
  post-emergence action against lambsquarters: very good
Green foxtail; application rate 1.00 kg/ha
  post-emergence action against green foxtail: very good
Cleavers harrif; application rate 1.0 kg/ha
  post-emergence control of cleavers harrif: very good

## CNC(=O)[C@@H](NC(=O)c1ccc(F)cc1C(F)(F)F)[C@H](OC(=O)COCCOCCOC)c1ccc(F)c(F)c1F [Compound 4.24]
Pig weed; application rate 0.5 kg/ha
  post-emergence action against pig weed: very good
lambsquarters; application rate 0.5 kg/ha
  post-emergence action against lambsquarters: very good
Green foxtail; application rate 0.5 kg/ha
  post-emergence action against green foxtail: very good
Cleavers harrif; application rate 0.5 kg/ha
  post-emergence control of cleavers harrif: very good
